From PubChem BioAssay (NCI)
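48-hour exposure; five concentrations; linearly interpolated endpoints. Here, GI50 denotes the concentration required for 50% inhibition of growth. TGI is the concentration that stops growth completely.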

What was measured:
Assay in all cases: NCI-60 cell line screen, 48 h
786-0 renal = system: 786-0 renal
COLO 205 colon = system: COLO 205 colon
EKVX NSCLC = system: EKVX NSCLC
HL-60(TB) leukemia = system: HL-60(TB) leukemia
RPMI-8226 leukemia = system: RPMI-8226 leukemia
CAKI-1 renal = system: CAKI-1 renal
HT29 colon = system: HT29 colon
SR leukemia = system: SR leukemia
MDA-MB-231 breast = system: MDA-MB-231 breast
PC-3 prostate = system: PC-3 prostate

Compound	TGI (786-0 renal)	TGI (COLO 205 colon)	TGI (EKVX NSCLC)	TGI (HL-60(TB) leukemia)	TGI (RPMI-8226 leukemia)	TGI (CAKI-1 renal)	TGI (HT29 colon)	TGI (SR leukemia)	GI50 (786-0 renal)	GI50 (COLO 205 colon)	GI50 (EKVX NSCLC)	GI50 (HL-60(TB) leukemia)	GI50 (HT29 colon)	GI50 (MDA-MB-231 breast)	TGI (MDA-MB-231 breast)	GI50 (PC-3 prostate)	TGI (PC-3 prostate)	GI50 (RPMI-8226 leukemia)	GI50 (SR leukemia)	GI50 (CAKI-1 renal)
C/C(=N\NC(N)=S)c1ccc(Oc2ccccc2)cc1	14.5 µM	25.7 µM	50.4 µM	23 µM	10.9 µM	–	–	–	–	–	–	–	–	–	–	–	–	–	–	–
CC[C@H]1CNC(=O)CC1CC(=O)OC (some centres not stated)	> 100 µM	–	> 100 µM	–	–	> 100 µM	> 100 µM	> 100 µM	–	–	–	–	–	–	–	–	–	–	–	–
COc1cnc2c(c1)C(=O)c1c-2n(CCCN2CCNCC2)c(=O)c2cc(F)ccc12	0.511 µM	1.44 µM	2.08 µM	0.682 µM	0.458 µM	–	0.68 µM	0.863 µM	0.127 µM	0.15 µM	0.441 µM	0.0927 µM	0.15 µM	0.479 µM	1.94 µM	0.596 µM	2.51 µM	0.0505 µM	0.05 µM	–
O=P(c1ccccc1)(c1ccccc1)C1CC=C2CCCCCC2C1 (configuration not stated)	51 µM	56.4 µM	> 100 µM	58.9 µM	42.7 µM	69.5 µM	> 100 µM	–	–	–	–	–	–	–	–	–	–	–	–	–
COc1cc(-c2nn(-c3cccc(NC(=O)NCCNC(=O)c4ccccc4)c3)cc2-c2ccncc2)ccc1Cl	5.37 µM	–	> 100 µM	–	–	–	23.6 µM	> 100 µM	1.94 µM	–	3.76 µM	–	0.965 µM	2.99 µM	> 100 µM	2.4 µM	> 100 µM	–	2.42 µM	–
O=c1[nH]c(-c2ccncc2)nc2sc3c(c12)CCCCCC3	> 100 µM	> 100 µM	–	> 100 µM	> 100 µM	> 100 µM	> 100 µM	–	> 100 µM	> 100 µM	–	> 100 µM	> 100 µM	> 100 µM	> 100 µM	> 100 µM	> 100 µM	> 100 µM	–	> 100 µM
Cc1cc(C)c(CNC(=O)c2cc(Cl)c3c(c2C)O[C@@](C)(C2CCC(N(C)C)CC2)O3)c(=O)[nH]1 (some centres not stated)	> 100 µM	> 100 µM	> 100 µM	> 100 µM	> 100 µM	> 100 µM	> 100 µM	–	33.1 µM	> 100 µM	> 100 µM	61.5 µM	33.8 µM	59.5 µM	> 100 µM	69.7 µM	> 100 µM	38 µM	–	93.1 µM
Cc1nn(-c2ccccc2)c2c1[C@@H](C)[C@H]1CC3(CC4(C)C[C@@H]3C1(C)c1c(C)nn(-c3ccccc3)c1N4C)N2C (some centres not stated)	> 100 µM	–	–	–	–	–	–	–	> 100 µM	–	–	–	–	> 100 µM	> 100 µM	0.591 µM	> 100 µM	–	–	–
O=C(c1ccccc1)N1CCc2c([nH]c3ccccc23)C1	> 100 µM	36.7 µM	> 100 µM	43.1 µM	74.9 µM	86.4 µM	> 100 µM	> 100 µM	–	–	–	–	–	–	–	–	–	–	–	–
O=C1N(c2ccccc2)C2(O)C(=O)c3ccccc3C2(O)N1c1ccccc1 (configuration not stated)	> 100 µM	> 100 µM	> 100 µM	–	> 100 µM	> 100 µM	> 100 µM	> 100 µM	–	–	–	–	–	–	–	–	–	–	–	–
COc1cc(Br)c(C2OCCCO2)cc1OCc1ccccc1	> 100 µM	> 100 µM	> 100 µM	> 100 µM	> 100 µM	–	> 100 µM	–	–	–	–	–	–	–	–	–	–	–	–	–
CCOc1ccc(/C=C/C(=O)c2sc(NNC(C)=O)nc2C)cc1	> 100 µM	> 100 µM	> 100 µM	> 100 µM	> 100 µM	> 100 µM	> 100 µM	–	–	–	–	–	–	–	–	–	–	–	–	–
O=c1c2cc(F)ccc2sc2c(NCCCNCCO)nc3ccc(F)cc3c12	3.32 µM	–	3.07 µM	–	5.1 µM	2.97 µM	3.74 µM	> 100 µM	1.63 µM	–	1.52 µM	–	1.82 µM	1.45 µM	2.88 µM	1.67 µM	3.3 µM	2.3 µM	3.41 µM	1.53 µM
CC(C)CC(=O)O[C@H]1C(=O)O[C@@H]2C[C@H]3[C@H](C)C(=O)C(O[C@@H]4O[C@H](CO)[C@@H](O)[C@H](O)[C@H]4O)=C[C@]3(C)[C@H]3[C@@H](O)[C@H](O)[C@]4(C(=O)O)OC[C@]32[C@@H]14	> 100 µM	> 100 µM	> 100 µM	> 100 µM	–	–	> 100 µM	> 100 µM	> 100 µM	> 100 µM	> 100 µM	41.3 µM	34 µM	> 100 µM	> 100 µM	–	> 100 µM	–	33.6 µM	–
OC1(c2ccccc2)c2ccccc2N(c2ccccc2)c2ccc(Cl)cc21 (configuration not stated)	0.68 µM	0.338 µM	1.25 µM	0.739 µM	0.862 µM	0.779 µM	0.918 µM	–	0.253 µM	0.147 µM	0.286 µM	0.251 µM	0.283 µM	0.231 µM	0.626 µM	0.303 µM	1.23 µM	0.216 µM	–	0.257 µM
C=C1C(=O)O[C@H]2[C@H]1CC/C(COC(=O)NCc1ccc(Cn3c(=O)sn(CCCI)c3=O)cc1)=C\CC[C@@]1(C)O[C@@H]21	3.71 µM	3.66 µM	6.77 µM	2.71 µM	3.57 µM	3.29 µM	3.31 µM	–	1.68 µM	1.95 µM	2.09 µM	0.307 µM	1.74 µM	1.75 µM	3.56 µM	1.94 µM	4.4 µM	0.899 µM	–	1.7 µM
O=C(CC1(O)C(=O)Nc2ccc(Br)cc21)c1cccc([N+](=O)[O-])c1 (configuration not stated)	> 100 µM	> 100 µM	> 100 µM	67.3 µM	57.9 µM	> 100 µM	> 100 µM	–	–	–	–	–	–	–	–	–	–	–	–	–
CCc1cccc(CC)c1NC1=CC(=O)C(=O)c2ccccc21	44.9 µM	> 100 µM	27.9 µM	> 100 µM	> 100 µM	44.3 µM	3.95 µM	> 100 µM	–	–	–	–	–	–	–	–	–	–	–	–
